Data published in patent US20130136722A1, “Methods of Ex Vivo Expansion of Blood Progenitor Cells, and Generation of Composite Grafts” (The Board of Trustees of The University of Illinois, priority 2011, published 2013).

Tested on: genes implicated in HSC self-renewal, differentiation, expansion and maintenance
Experiment: Real time quantitative PCR of gene transcripts in re-isolated expanded CD34+ cells
Format: cell-based, human
Method: RNA preparation and real time quantative PCR assays were performed using SYBR green dye (Life Technologies; Carlsbad, Calif.) and an ABI 7500 Fast Real-Time PCR system (Life Technologies) were used to quantitate gene expression in reverse-transcribed mRNA as described (Araki et al., 2007, Id.). Gene expression was calculated by relative quantitation, and all results were normalized to expression of GAPDH.
To investigate whether treating cells with CMA altered gene expression, transcript levels of several genes associated with hematopoietic stem cell (HSC) self-renewal and differentiation were compared in unmanipulated primary CD34^+ cells (day 0) and CD34^+ cells expanded in the presence or absence of CMA (5azaD/TSA) during ex vivo culture. […] In the absence of 5azaD/TSA treatment, transcript levels of these genes were reduced over the course of 9 days of culture, correlating well with poor in vivo hematopoietic reconstitution capacity of untreated cells compared to unmanipulated primary or 5azaD/TSA expanded CD34^+ cells. […] In addition, transcript levels of CDK inhibitor P21, which regulates the G1/S transition of the cell cycle, was reduced in CD34^+ cells expanded in the absence of CMAs, but was not reduced in 5azaD/TSA expanded cells (p=0.06). Reduced P21 levels are generally associated with shorter G1/S transition and faster rate of cell divisions. […] This was also consistent with previous results showing membrane tracking dye as well as bromodeoxyuridine (BrdU) pulse chase assays of CD34^+CD90^+ cells during expansion culture (Araki et al., 2007, Blood 109: 3570-78).

Structure (SMILES): CCCC(CCC)C(=O)O [VPA, valproic acid]
- transcript levels of Alox5 in contrast to CD34+ cells expanded in 5azaD/TSA: significantly higher
- transcript levels of S100A8 and Alox5 in contrast to controls (FIGS. 5A, 5B): increased
- transcript levels of GATA1 compared with control cultures (day 3, FIG. 3B): significantly increased
